What was measured:
JAK2 = JAK2 (Homo sapiens (Human), UniProt O60674); assay: TR-FRET JAK2 kinase assay; assay type: biochemical; conditions: ATP 10 μM; for inhibition at 0.1 µM: read-out: JAK2 % inhibition at 100 nM, 100 nM; for inhibition at 1 µM: read-out: JAK2 % inhibition at 1 μM
Method: (§1) Compounds were screened in the TR-FRET assay for JAK2 and c-Src kinase inhibition. Ultra light poly GT (Perkin Elmer) was used as the substrate for JAK2 and c-Src with the ATP concentration of 10 μM and 50 μM, respectively. […] The dose-response curve fitting was done using GraphPad Prism software.

c-Src = c-Src (Homo sapiens (Human), UniProt P12931); assay: TR-FRET c-Src kinase assay; assay type: biochemical; conditions: ATP 50 μM; for inhibition at 0.1 µM: read-out: c-SRC % inhibition at 100 nM, 100 nM; for inhibition at 1 µM: read-out: c-SRC % inhibition at 1 μM
Method: as §1

Mda-Mb-231 cells = assay: Cell viability assay (XTT assay), Mda-Mb-231; assay type: cell-based; conditions: Homo sapiens, 72 hrs
Method: Mda-Mb-231 or A549 cells were seeded onto a 96-well micro plate. Next day compounds were added to cells and incubated for 72 hrs. Compound treatment was done in triplicates. After 72 hrs cell culture media was aspirated from the wells and XTT working solution was added and plates were incubated for 2-5 hrs. The absorbance of the samples was measured with a spectrophotometer at a wavelength of 465 nm. EC50 values were calculated using Graphpad Prism. Tumor cell lines used in the examples of the present invention were procured from ATCC. Description of the cell lines is included in the following table: […]

pStat3 = assay: In-Cell-Western blot assay for pStat3 (ICW) in A431 cells; assay type: cell-based; conditions: Homo sapiens, A-431, 2 hrs, read-out: pSTAT3 inhibition
Method: A431 cells were seeded onto a 96-well micro plate. After overnight serum starvation cells were incubated with compounds for 2 hrs. Cells were fixed with 4% paraformaldehyde in PBS and then permeabilized with 0.1% Triton X-100 in PBS (PBST). Cells were blocked with 5% BSA in PBST for 2 hrs, followed by overnight incubation with phospho Stat3 antibody. Cells were washed and incubated with europium-labeled anti-rabbit secondary antibody for 2 hrs. After washing enhancement solution was added to the wells. The micro-plate was read on the Victor instrument at the Europium setting. The Hoechst readings were used to normalize for cell number. IC50 values were calculated with the normalized europium values using Graphpad Prism.

Sequence of JAK2 (O60674 whole entry): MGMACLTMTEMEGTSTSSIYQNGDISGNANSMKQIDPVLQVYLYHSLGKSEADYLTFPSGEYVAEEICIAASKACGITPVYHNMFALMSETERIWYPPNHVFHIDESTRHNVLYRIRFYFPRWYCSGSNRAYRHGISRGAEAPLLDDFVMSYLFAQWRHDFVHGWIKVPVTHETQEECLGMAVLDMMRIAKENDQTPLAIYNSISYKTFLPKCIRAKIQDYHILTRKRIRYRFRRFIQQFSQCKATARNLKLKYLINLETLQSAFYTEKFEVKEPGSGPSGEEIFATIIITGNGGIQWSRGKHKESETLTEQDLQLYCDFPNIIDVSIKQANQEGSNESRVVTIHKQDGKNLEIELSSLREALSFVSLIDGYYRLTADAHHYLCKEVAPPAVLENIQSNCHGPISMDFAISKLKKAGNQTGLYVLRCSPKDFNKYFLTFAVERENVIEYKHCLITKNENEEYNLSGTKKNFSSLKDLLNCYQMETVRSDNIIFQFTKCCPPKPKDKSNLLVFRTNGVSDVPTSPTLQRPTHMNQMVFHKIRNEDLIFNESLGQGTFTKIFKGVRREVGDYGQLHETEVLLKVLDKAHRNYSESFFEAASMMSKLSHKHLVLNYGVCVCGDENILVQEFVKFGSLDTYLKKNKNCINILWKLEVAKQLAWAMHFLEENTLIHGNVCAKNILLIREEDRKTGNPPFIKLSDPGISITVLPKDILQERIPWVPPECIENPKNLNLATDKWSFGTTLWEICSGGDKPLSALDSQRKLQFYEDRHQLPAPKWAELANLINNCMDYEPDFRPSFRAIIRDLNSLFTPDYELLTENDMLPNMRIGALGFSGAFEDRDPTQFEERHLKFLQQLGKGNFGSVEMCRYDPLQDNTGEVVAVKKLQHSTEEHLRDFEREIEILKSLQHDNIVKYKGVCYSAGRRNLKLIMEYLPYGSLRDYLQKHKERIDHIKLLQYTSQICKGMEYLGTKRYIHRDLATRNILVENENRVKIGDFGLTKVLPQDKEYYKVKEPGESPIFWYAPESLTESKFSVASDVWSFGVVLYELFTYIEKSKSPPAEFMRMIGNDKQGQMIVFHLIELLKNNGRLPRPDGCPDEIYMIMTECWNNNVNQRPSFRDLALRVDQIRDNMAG
Sequence of c-Src (P12931 whole entry, looked up): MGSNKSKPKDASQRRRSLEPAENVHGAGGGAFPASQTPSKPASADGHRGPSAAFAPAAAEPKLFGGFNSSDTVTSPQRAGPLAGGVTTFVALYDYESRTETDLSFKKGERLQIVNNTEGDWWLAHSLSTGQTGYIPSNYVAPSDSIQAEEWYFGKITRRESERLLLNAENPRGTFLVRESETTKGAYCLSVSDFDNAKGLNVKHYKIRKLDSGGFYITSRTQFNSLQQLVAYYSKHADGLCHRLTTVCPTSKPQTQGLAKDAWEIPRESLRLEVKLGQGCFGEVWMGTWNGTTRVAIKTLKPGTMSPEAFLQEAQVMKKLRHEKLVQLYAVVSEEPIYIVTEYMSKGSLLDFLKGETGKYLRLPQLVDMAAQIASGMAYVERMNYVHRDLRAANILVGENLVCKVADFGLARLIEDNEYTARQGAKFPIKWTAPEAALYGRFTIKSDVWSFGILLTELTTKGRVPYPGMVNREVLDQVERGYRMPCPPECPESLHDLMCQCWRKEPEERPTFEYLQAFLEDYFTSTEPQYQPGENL

Compound `Cc1ccc(NC(=O)c2cccc(Br)c2)cc1N1CCc2nc(Nc3ccc(N4CCN(C)CC4)cc3)ncc2C1=O` [Compound 58, 3-Bromo-N-(4-methyl-3-{2-[4-(4-methyl-piperazin-1-yl)-phenylamino]-5-oxo-7,8-dihydro-5H-pyrido[4,3-d]pyrimidin-6-yl}-phenyl)-benzamide] has an IC50 (JAK2) of 44 nM, an IC50 (c-Src) of 19 nM and an EC50 (Mda-Mb-231 cells) of 3820 nM.

`Cc1ccc(NC(=O)CC2CCCC2)cc1N1CCc2nc(Nc3ccc(OCCN4CCCC4)cc3)ncc2C1` [Compound 108, 2-Cyclopentyl-N-(4-methyl-3-{2-[4-(2-pyrrolidin-1-yl-ethoxy)-phenylamino]-7,8-dihydro-5H-pyrido[4,3-d]pyrimidin-6-yl}-phenyl)-acetamide] was tested, and the IC50 (JAK2) was 12 nM, the inhibition at 0.1 µM (JAK2) was 89% and the inhibition at 1 µM (JAK2; 1 μM) was 98%. For the same compound, the IC50 (c-Src) was 1 nM, the inhibition at 0.1 µM (c-Src) was 98% and the inhibition at 1 µM (c-Src) was 100%. The EC50 (Mda-Mb-231 cells) was 2600 nM.

`Cc1ccc(NC(=O)c2cc(Cl)cc(C(F)(F)F)c2)cc1N1CCc2nc(Nc3ccc(N4CCN(C)CC4)cc3)ncc2C1=O` [Compound 120, 3-Chloro-N-(4-methyl-3-{2-[4-(4-methyl-piperazin-1-yl)-phenylamino]-5-oxo-7,8-dihydro-5H-pyrido[4,3-d]pyrimidin-6-yl}-phenyl)-5-trifluoromethyl-benzamide] gave an IC50 (JAK2) of 36 nM, an inhibition at 0.1 µM (c-Src) of 94% and an inhibition at 1 µM (c-Src) of 95%. For the same compound, the EC50 (Mda-Mb-231 cells) was 2500 nM.

In the case of `Cc1ccc(NC(=O)c2cccc(C(F)(F)F)c2)cc1N1CCc2nc(Nc3ccc(C(=O)NC4CCN(C)CC4)nc3)ncc2C1` [Compound 148, 5-{6-[2-Methyl-5-(3-trifluoromethyl-benzoylamino)-phenyl]-5,6,7,8-tetrahydro-pyrido[4,3-d]pyrimidin-2-ylamino}-pyridine-2-carboxylic acid (1-methyl-piperidin-4-yl)-amide], the IC50 (c-Src) is reported as 2.4 nM, the inhibition at 0.1 µM (c-Src) is reported as 99% and the inhibition at 1 µM (c-Src) is reported as 99%. It also gave an EC50 (Mda-Mb-231 cells) of 34 nM and an IC50 (pStat3) of 270 nM.

With `Cc1ccc(NC(=O)NC2CCCC2)cc1N1CCc2nc(Nc3ccc(OCCN4CCCC4)cc3)ncc2C1` [Compound 153, 1-Cyclopentyl-3-(4-methyl-3-{2-[4-(2-pyrrolidin-1-yl-ethoxy)-phenylamino]-7,8-dihydro-5H-pyrido[4,3-d]pyrimidin-6-yl}-phenyl)-urea] the IC50 (JAK2) was 4 nM, the inhibition at 0.1 µM (c-Src) was 98% and the inhibition at 1 µM (c-Src) was 99%. For the same compound, the EC50 (Mda-Mb-231 cells) was 610 nM.

In the case of `Cc1ccc(NC(=O)CC(C)C(F)(F)F)cc1N1CCc2nc(Nc3ccc(OCCN4CCN(C)CC4)cc3)ncc2C1` (stereo not shown) [Compound 160, 4,4,4-Trifluoro-3-methyl-N-[4-methyl-3-(2-{4-[2-(4-methyl-piperazin-1-yl)-ethoxy]-phenylamino}-7,8-dihydro-5H-pyrido[4,3-d]pyrimidin-6-yl)-phenyl]-butyramide], the IC50 (JAK2) is reported as 15 nM and the IC50 (c-Src) is reported as 66 nM.

In the case of `Cc1ccc(NC(=O)CCC(F)(F)F)cc1N1CCc2nc(Nc3ccc(C(=O)N4CCN(C)CC4)cc3)ncc2C1` [Compound 164, 4,4,4-Trifluoro-N-(4-methyl-3-{2-[4-(4-methyl-piperazine-1-carbonyl)-phenylamino]-7,8-dihydro-5H-pyrido[4,3-d]pyrimidin-6-yl}-phenyl)-butyramide], the IC50 (JAK2) is reported as 46 nM, the inhibition at 0.1 µM (JAK2) is reported as 68% and the inhibition at 1 µM (JAK2; 1 μM) is reported as 91%. The IC50 (c-Src) was 26 nM, the inhibition at 0.1 µM (c-Src) was 70% and the inhibition at 1 µM (c-Src) was 79%.

`Cc1ccc(NC(=O)c2cc(C(F)(F)F)ccn2)cc1N1CCc2nc(Nc3ccc(N4CCN(C)CC4)cc3)ncc2C1=O` [Compound 166, 4-Trifluoromethyl-pyridine-2-carboxylic acid (4-methyl-3-{2-[4-(4-methyl-piperazin-1-yl)-phenylamino]-5-oxo-7,8-dihydro-5H-pyrido[4,3-d]pyrimidin-6-yl}-phenyl)-amide] showed an IC50 (JAK2) of 48 nM, an inhibition at 0.1 µM (JAK2) of 74% and an inhibition at 1 µM (JAK2; 1 μM) of 93%. It also gave an IC50 (c-Src) of 27 nM, an inhibition at 0.1 µM (c-Src) of 60% and an inhibition at 1 µM (c-Src) of 87%.

Compound `Cc1ccc(NC(=O)c2cc(C(F)(F)F)ccn2)cc1N1CCc2nc(Nc3ccc(C(=O)N4CCN(C)CC4)cc3)ncc2C1` [Compound 167, 4-Trifluoromethyl-pyridine-2-carboxylic acid (4-methyl-3-{2-[4-(4-methyl-piperazine-1-carbonyl)-phenylamino]-7,8-dihydro-5H-pyrido[4,3-d]pyrimidin-6-yl}-phenyl)-amide] has an IC50 (JAK2) of 5.3 nM, an inhibition at 0.1 µM (JAK2) of 95% and an inhibition at 1 µM (JAK2; 1 μM) of 97%. It also gave an IC50 (c-Src) of 27 nM, an inhibition at 0.1 µM (c-Src) of 97% and an inhibition at 1 µM (c-Src) of 98%. The IC50 (pStat3) was 283 nM.

For `Cc1ccc(NC(=O)c2cc(C(F)(F)F)ccn2)cc1N1CCc2nc(Nc3ccc(C(=O)N4CCN(C)CC4)cc3)ncc2C1=O` [Compound 170, 4-Trifluoromethyl-pyridine-2-carboxylic acid (4-methyl-3-{2-[4-(4-methyl-piperazine-1-carbonyl)-phenylamino]-5-oxo-7,8-dihydro-5H-pyrido[4,3-d]pyrimidin-6-yl}-phenyl)-amide], the IC50 (JAK2) was 70 nM, the inhibition at 0.1 µM (JAK2) was 64% and the inhibition at 1 µM (JAK2; 1 μM) was 93%. It also gave an inhibition at 0.1 µM (c-Src) of 26% and an inhibition at 1 µM (c-Src) of 58%.

`CN1CCN(c2ccc(Nc3ncc4c(n3)CCN(c3cc(NC(=O)c5cc(F)cc(C(F)(F)F)c5)ccc3Cl)C4=O)cc2)CC1` [Compound 172, N-(4-Chloro-3-{2-[4-(4-methyl-piperazin-1-yl)-phenylamino]-5-oxo-7,8-dihydro-5H-pyrido[4,3-d]pyrimidin-6-yl]-phenyl)-3-fluoro-5-trifluoromethyl-benzamide] showed an inhibition at 0.1 µM (JAK2) of 94%, an inhibition at 1 µM (JAK2; 1 μM) of 97% and an inhibition at 0.1 µM (c-Src) of 66%. The inhibition at 1 µM (c-Src) was 72% and the EC50 (Mda-Mb-231 cells) was 1840 nM.

In the case of `CN1CCN(c2ccc(Nc3ncc4c(n3)CCN(c3cc(NC(=O)c5cccc(C(F)(F)F)c5)ccc3Cl)C4)cc2)CC1` [Compound 174, N-(4-Chloro-3-{2-[4-(4-methyl-piperazin-1-yl)-phenylamino]-7,8-dihydro-5H-pyrido[4,3-d]pyrimidin-6-yl}-phenyl)-3-trifluoromethyl-benzamide], the inhibition at 0.1 µM (JAK2) is reported as 94%, the inhibition at 1 µM (JAK2; 1 μM) is reported as 97% and the inhibition at 0.1 µM (c-Src) is reported as 95%. It also gave an inhibition at 1 µM (c-Src) of 98% and an IC50 (pStat3) of 161 nM.

For `CNC(=O)c1ccc(Nc2ncc3c(n2)CCN(c2cc(NC(=O)c4cccc(C(F)(F)F)c4)ccc2Cl)C3)cc1` [Compound 176, N-{4-Chloro-3-[2-(4-methylcarbamoyl-phenylamino)-7,8-dihydro-5H-pyrido[4,3-d]pyrimidin-6-yl]-phenyl}- -5-trifluoromethyl-benzamide], the IC50 (JAK2) was 15 nM, the inhibition at 0.1 µM (JAK2) was 89% and the inhibition at 1 µM (JAK2; 1 μM) was 94%. For the same compound, the IC50 (c-Src) was 13 nM, the inhibition at 0.1 µM (c-Src) was 87% and the inhibition at 1 µM (c-Src) was 96%. The EC50 (Mda-Mb-231 cells) was 330 nM.

Compound `CNC(=O)c1ccc(Nc2ncc3c(n2)CCN(c2cc(NC(=O)c4cc(F)cc(C(F)(F)F)c4)ccc2Cl)C3)cc1` [Compound 177, N-{4-Chloro-3-[2-(4-methylcarbamoyl-phenylamino)-7,8-dihydro-5H-pyrido[4,3-d]pyrimidin-6-yl]-phenyl}-3-fluoro-5-trifluoromethyl-benzamide] has an IC50 (c-Src) of 20 nM, an inhibition at 0.1 µM (c-Src) of 86% and an inhibition at 1 µM (c-Src) of 96%. The EC50 (Mda-Mb-231 cells) was 120 nM and the IC50 (pStat3) was 290 nM.

For `Cc1nc(Nc2ncc(C(=O)Nc3c(C)cccc3Cl)s2)cc(N2CCN(CCO)CC2)n1` [Dasatinib, reference compound], the “JAK2 % inhibition at 1 μM” value (JAK2; 1 μM) was 55% and the EC50 (Mda-Mb-231 cells) was 44 nM.
